Measured values from ChEMBL document CHEMBL1201862, “PubChem BioAssay data set” (2004).
Activity calls are given as the source filed them.

What was measured:
[1] = target: T1, Alkaline phosphatase, tissue-nonspecific isozyme (Homo sapiens, UniProt P05186)
T1 sequence (P05186 whole entry): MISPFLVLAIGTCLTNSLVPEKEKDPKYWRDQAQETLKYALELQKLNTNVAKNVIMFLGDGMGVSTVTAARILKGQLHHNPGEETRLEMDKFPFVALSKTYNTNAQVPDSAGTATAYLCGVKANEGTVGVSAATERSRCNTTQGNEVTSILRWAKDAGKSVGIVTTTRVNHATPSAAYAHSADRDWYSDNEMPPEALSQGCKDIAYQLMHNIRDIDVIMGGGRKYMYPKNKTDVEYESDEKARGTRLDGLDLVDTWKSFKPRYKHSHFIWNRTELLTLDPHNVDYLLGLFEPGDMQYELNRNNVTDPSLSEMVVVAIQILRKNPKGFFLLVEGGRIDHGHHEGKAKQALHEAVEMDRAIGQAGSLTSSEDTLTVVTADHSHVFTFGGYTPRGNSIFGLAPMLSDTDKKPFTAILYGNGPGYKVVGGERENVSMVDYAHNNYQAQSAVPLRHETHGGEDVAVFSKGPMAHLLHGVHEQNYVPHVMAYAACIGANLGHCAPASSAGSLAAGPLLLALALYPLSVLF

[2] = target: T2, RNA-binding protein pos-1 (Caenorhabditis elegans, UniProt G5EF15); assay: inhibitors of POS-1/mex-3 RNA binding, dose response, biochemical, fluorescence polarization (AID 1964);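 also: purified POS-1 fused to maltose binding protein made in E. coli; potency of compounds blocking POS-1 binding to fluorescent RNA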
T2 sequence (G5EF15 whole entry): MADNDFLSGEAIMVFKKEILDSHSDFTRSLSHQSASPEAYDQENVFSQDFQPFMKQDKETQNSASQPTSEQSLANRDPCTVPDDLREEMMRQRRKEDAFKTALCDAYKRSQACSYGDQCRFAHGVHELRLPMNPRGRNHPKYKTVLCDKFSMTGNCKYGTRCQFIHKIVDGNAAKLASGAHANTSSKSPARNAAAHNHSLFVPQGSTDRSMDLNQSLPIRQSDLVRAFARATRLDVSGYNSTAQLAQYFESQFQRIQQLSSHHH

Aminopeptidase N = target: T3, Aminopeptidase N (Plasmodium falciparum FcB1/Columbia, UniProt O96935); assay: P. falciparum M1AAP inhibitors, biochemical, fluorogenic H-Leu-NHMec substrate, 1536-well (AID 1445); parameters: species or system Plasmodium falciparum 3D7, 3D7
T3 sequence (O96935 whole entry): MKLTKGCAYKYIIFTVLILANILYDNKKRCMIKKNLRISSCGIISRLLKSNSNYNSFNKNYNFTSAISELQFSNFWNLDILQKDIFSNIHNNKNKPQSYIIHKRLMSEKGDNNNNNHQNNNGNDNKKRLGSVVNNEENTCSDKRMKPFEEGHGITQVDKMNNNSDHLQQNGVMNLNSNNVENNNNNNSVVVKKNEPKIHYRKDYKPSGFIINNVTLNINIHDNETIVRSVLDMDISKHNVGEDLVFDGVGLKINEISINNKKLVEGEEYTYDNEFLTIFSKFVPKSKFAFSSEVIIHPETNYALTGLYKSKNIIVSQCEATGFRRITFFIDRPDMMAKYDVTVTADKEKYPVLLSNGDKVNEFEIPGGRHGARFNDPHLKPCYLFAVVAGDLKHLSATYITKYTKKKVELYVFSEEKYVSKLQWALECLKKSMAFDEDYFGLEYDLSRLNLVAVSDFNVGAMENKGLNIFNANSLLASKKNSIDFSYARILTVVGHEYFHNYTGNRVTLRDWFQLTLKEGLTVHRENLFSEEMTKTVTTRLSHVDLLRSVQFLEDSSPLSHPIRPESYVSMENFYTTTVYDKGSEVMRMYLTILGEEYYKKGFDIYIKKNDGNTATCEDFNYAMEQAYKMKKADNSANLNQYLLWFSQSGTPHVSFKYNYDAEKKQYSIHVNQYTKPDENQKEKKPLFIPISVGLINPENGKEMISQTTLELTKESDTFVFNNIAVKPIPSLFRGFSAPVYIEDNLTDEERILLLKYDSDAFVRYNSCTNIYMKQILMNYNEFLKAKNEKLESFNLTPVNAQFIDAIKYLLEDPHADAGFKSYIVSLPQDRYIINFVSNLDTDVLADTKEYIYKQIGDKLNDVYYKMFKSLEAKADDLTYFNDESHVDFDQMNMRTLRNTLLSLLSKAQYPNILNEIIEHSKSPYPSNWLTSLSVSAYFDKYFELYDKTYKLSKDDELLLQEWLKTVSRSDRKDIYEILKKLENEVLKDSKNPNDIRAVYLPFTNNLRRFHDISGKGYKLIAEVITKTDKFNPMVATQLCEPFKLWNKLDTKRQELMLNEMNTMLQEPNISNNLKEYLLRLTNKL

[3] = HIV-1 Env-mediated cell fusion inhibitors, dose response, CCR5-tropic Env (AID 2279); type: functional
[4] = target: T4, Zinc finger protein mex-5 (Caenorhabditis elegans, UniProt Q9XUB2); assay: MEX-5/TCR-2 RNA interaction inhibitors, dose response, biochemical, C. elegans, fluorescence polarization (AID 1960)
T4 sequence (Q9XUB2 whole entry): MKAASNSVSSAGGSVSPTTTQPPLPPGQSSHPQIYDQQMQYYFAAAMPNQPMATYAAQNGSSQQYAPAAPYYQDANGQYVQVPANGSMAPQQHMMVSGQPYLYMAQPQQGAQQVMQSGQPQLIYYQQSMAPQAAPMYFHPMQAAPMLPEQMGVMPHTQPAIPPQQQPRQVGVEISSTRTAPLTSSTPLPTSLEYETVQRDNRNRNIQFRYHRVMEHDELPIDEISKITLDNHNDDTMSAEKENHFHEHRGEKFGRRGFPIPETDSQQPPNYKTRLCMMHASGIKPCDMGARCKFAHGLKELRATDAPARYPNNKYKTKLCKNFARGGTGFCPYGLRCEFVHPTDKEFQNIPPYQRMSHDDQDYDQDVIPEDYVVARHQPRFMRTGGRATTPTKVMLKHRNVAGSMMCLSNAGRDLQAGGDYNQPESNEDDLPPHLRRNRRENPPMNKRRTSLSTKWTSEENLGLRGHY

[5] = target: Induced myeloid leukemia cell differentiation protein Mcl-1 (Homo sapiens, UniProt Q07820); type: functional
[6] = system: Streptococcus sp. 'group A'; assay: growth inhibition of control SK(-) GAS strain, dose response, counter-screen for streptokinase expression inhibitor project, luminescence, kanamycin, BacTiterGlo, confirmation (AID 1900); type: functional, organism-based
Streptococcus = assay: Group A Streptococcus viability loss, dose response, counter-screen for streptokinase expression inhibitor project, luminescence, BacTiterGlo (AID 1915); type: functional, organism-based;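 also: potency for reduction of bacterial viability or growth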
[7] = target: Alkaline phosphatase, placental type (Homo sapiens, UniProt P05187); assay: PLAP enzyme inhibitors, confirmation, biochemical, luminescence (AID 1512); type: functional
[8] = target: T1, Alkaline phosphatase, tissue-nonspecific isozyme; assay: human TNAP enzyme inhibitors, SAR follow-up, biochemical, luminescent, dose response (AID 1056)
[9] = target: Glyceraldehyde-3-phosphate dehydrogenase (Homo sapiens, UniProt P04406)
NS3 = NS3 (Hepatitis C virus, UniProt A3EZJ3); assay: PubChem AID 2173; parameters: species or system Hepacivirus hominis
[10] = target: 1-acylglycerol-3-phosphate O-acyltransferase ABHD5/Perilipin-5 (Homo sapiens, UniProt Q00G26+Q8WTS1); assay: Luminescence-based biochemical high throughput dose response assay for inhibitors of the interaction of the lipase co-activator protein, abhydrolase domain containing 5 (ABHD5) with perilipin-5 (MLDP; PLIN5) (2K validation set). [Related pubchem assays (depositor defined):AID493035, AID493241]
Perilipin-1/ABHD5 = Perilipin-1/ABHD5 (Homo sapiens, UniProt O60240+Q8WTS1); assay: Luminescence-based biochemical high throughput dose response assay for inhibitors of the interaction of the lipase co-activator protein, abhydrolase domain containing 5 (ABHD5) with perilipin-1 (PLIN1) (2K validation set). [Related pubchem assays (depositor defined):AID493027, AID493057]
[11] = target: Neurotensin receptor type 1 (Homo sapiens, UniProt P30989); type: functional;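 also: Image-based confirmatory dose-response assay measuring agonist activity at NTR1; NTR1-expressing U2OS osteosarcoma cells imaged for beta-arrestin GFP spot formation; agonist potency where compounds increase beta-arrestin recruitment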
[12] = target: T5, Carboxy-terminal domain RNA polymerase II polypeptide A small phosphatase 1 (Homo sapiens, UniProt Q9GZU7); assay: inhibitors of CTDSP1, concentration-response testing, biochemical assay, absorbance-based, actives from ultra-high-throughput screening (AID 540297); type: functional
T5 sequence (Q9GZU7 whole entry): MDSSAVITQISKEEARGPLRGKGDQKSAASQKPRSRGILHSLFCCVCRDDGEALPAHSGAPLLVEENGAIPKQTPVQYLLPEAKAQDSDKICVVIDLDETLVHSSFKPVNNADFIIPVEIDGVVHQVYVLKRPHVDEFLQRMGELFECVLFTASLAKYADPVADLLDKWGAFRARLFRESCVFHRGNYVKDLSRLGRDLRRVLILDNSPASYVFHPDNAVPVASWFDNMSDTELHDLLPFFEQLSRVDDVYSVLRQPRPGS

[13] = target: Lysosomal acid glucosylceramidase (Homo sapiens, UniProt P04062); assay: Dose response cell-based high throughput screening assay to identify enhancers of beta-glucosidase activity. [Related pubchem assays: 784 ]; type: functional
[14] = target: Eukaryotic translation initiation factor 4H (Homo sapiens, UniProt Q15056); assay: eIF4H inhibition in translation initiation, SAR follow-up (AID 435011); type: functional
[15] = target: Polyadenylate-binding protein 1 (Homo sapiens, UniProt P11940); assay: PABP inhibition in translation initiation, SAR follow-up (AID 435018); type: functional
[16] = cytotoxicity toward NIH3T3 fibroblasts, dose response, counter-screen, cell-based, ATP luminescence, mouse fibroblasts (AID 2010); type: functional;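 also: cells exposed to compound for about 90 hours before reading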
[17] = inhibitors of firefly luciferase expression or activity, dose response, H4 neuroglioma cells, luminescence (AID 1990); type: functional, cell-based
[18] = inhibitors of intracellular T. cruzi replication, confirmation, NIH3T3 host cells, beta-gal luminescence (AID 2044); type: functional, cell-based;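 also: intracellular parasites grown in NIH/3T3 mouse fibroblasts as host cells; luminescent beta-galactosidase reporter signal from transgenic T. cruzi replicating inside host cells; inhibitors lower the luminescence signal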
[19] = luciferase reporter signal reduction – luminescence, H4-C neuroglioblastoma cells, dose response (AID 2458); type: functional, cell-based;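 also: H4 neuroglioblastoma cells stably carrying a luciferase reporter gene fusion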
[20] = inhibitors of SNCA 5'UTR-driven reporter translation, confirmation, H4 neuroglioma cells, luminescence (AID 1988); type: functional, cell-based
cells = type: functional, cell-based
[21] = inhibitors of SNCA 5'UTR-driven translation, confirmation, luminescence, H4 neuroglioblastoma cells, dose confirmation (AID 2454); type: functional, cell-based;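 also: H4 neuroglioblastoma cells carrying an alpha-synuclein 5'UTR luciferase reporter; potency for inhibition of the luciferase signal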
[22] = cytotoxicity in HEK-293T cells, dose response, cytotoxicity control for TCR NF-kB inhibitor project, luminescence, T-cell screen hits (AID 489026); type: functional, cell-based;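 also: cells exposed to compound about 14 hours before the viability readout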
[23] = Luminescence Cell-Based Dose Response HTS to Identify Inhibitors of 5'UTR Stem-Loop Driven Prion Protein mRNA Translation in H4 Neuroglioblastoma Cells. [Related pubchem assays: 1827 (Project Summary), 1813 (Primary HTS)]; type: functional

Sequence of Glyceraldehyde-3-phosphate dehydrogenase (P04406 whole entry): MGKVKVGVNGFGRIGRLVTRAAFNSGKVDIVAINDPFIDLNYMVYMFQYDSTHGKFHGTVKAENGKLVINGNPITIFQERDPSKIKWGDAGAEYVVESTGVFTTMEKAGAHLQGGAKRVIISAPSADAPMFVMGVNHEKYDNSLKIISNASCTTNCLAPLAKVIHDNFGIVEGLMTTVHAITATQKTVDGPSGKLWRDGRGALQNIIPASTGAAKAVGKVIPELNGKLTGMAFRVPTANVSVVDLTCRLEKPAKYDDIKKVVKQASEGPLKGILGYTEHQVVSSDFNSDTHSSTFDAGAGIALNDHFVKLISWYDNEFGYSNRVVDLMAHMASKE
Sequence of NS3 (A3EZJ3 whole entry, the tested form may be a part): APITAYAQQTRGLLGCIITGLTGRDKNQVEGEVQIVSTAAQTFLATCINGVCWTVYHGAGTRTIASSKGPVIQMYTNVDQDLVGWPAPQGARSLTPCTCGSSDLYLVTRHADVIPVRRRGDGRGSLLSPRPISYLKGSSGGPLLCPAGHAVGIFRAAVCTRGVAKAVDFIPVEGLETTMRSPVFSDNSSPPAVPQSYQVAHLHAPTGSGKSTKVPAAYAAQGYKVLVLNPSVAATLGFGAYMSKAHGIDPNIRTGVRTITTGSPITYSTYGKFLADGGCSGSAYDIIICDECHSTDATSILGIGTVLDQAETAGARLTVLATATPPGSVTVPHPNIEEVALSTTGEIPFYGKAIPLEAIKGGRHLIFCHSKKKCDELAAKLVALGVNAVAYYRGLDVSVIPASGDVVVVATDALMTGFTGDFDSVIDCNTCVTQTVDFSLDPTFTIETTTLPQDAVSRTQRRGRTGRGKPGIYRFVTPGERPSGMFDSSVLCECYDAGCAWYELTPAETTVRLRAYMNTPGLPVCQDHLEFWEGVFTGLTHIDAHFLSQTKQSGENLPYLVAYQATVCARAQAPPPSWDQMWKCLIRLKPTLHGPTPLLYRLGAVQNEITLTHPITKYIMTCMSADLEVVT
Sequence of Perilipin-1/ABHD5 (Q8WTS1 whole entry, the tested form may be a part): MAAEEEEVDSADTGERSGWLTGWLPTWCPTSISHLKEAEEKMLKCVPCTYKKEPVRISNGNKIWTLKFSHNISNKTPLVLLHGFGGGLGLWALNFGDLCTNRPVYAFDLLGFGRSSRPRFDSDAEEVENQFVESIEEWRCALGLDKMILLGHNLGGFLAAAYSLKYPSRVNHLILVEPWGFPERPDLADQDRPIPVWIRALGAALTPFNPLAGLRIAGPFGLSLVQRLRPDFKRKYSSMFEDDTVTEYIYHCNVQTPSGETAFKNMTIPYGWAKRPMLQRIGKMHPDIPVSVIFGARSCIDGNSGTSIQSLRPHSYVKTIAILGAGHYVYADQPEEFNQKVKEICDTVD
Sequence of Perilipin-1/ABHD5 (O60240 whole entry, the tested form may be a part): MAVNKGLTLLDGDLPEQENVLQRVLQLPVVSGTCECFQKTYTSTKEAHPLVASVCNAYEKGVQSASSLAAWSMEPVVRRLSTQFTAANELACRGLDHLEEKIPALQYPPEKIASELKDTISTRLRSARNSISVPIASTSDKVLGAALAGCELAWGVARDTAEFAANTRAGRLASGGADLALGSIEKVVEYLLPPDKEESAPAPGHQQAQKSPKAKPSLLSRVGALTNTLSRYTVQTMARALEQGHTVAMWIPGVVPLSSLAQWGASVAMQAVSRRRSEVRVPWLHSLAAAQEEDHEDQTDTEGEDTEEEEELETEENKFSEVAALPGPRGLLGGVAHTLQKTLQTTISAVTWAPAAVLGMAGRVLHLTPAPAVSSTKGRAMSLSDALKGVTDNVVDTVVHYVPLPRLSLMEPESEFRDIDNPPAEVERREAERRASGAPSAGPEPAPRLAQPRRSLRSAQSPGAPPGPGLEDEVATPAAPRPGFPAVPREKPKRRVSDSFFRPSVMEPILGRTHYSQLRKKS
Sequence of Neurotensin receptor type 1 (P30989 whole entry, the tested form may be a part): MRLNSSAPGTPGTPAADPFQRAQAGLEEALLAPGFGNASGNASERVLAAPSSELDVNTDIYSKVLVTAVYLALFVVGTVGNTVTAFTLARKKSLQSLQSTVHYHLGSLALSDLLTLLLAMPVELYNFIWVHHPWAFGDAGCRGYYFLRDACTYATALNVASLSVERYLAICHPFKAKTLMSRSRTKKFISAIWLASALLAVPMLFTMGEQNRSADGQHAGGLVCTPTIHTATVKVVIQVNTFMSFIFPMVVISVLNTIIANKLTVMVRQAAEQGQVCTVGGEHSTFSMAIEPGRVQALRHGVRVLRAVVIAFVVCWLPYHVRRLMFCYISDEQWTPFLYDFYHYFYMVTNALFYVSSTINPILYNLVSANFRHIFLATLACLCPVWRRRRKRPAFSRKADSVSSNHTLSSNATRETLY
Sequence of 1-acylglycerol-3-phosphate O-acyltransferase ABHD5/Perilipin-5 (Q00G26 whole entry, the tested form may be a part): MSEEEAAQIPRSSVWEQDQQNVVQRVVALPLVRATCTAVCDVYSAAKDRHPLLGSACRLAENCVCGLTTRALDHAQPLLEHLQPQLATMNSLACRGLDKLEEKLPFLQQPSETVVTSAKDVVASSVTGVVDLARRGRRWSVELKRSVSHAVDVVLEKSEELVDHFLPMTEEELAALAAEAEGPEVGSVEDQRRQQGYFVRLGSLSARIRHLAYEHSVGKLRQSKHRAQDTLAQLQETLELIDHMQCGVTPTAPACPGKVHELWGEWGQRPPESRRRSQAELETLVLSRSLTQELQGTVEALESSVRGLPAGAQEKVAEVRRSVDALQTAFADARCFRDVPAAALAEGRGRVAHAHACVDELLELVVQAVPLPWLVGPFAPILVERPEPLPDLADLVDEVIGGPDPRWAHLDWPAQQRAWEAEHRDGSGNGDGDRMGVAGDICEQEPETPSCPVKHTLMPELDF
Sequence of 1-acylglycerol-3-phosphate O-acyltransferase ABHD5/Perilipin-5 (Q8WTS1 whole entry, the tested form may be a part): as the sequence (Q8WTS1 whole entry, the tested form may be a part) above
Sequence of Polyadenylate-binding protein 1 (P11940 whole entry): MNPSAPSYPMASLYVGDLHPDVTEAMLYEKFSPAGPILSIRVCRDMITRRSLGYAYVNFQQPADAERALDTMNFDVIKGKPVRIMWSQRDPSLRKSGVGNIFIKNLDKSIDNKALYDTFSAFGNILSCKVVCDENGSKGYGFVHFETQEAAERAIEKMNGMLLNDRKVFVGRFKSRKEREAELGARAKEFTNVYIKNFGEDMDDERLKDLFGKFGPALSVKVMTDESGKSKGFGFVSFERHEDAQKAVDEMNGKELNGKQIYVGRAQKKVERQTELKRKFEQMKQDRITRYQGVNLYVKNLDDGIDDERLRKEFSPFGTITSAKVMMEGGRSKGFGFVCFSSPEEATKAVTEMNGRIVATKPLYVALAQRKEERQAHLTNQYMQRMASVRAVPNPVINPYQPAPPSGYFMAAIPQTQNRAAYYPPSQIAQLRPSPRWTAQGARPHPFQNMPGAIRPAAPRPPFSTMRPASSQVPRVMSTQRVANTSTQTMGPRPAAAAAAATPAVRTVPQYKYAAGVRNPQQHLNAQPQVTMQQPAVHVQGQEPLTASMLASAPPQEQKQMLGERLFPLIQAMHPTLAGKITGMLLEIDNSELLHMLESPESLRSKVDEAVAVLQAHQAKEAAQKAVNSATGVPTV
Sequence of Lysosomal acid glucosylceramidase (P04062 whole entry): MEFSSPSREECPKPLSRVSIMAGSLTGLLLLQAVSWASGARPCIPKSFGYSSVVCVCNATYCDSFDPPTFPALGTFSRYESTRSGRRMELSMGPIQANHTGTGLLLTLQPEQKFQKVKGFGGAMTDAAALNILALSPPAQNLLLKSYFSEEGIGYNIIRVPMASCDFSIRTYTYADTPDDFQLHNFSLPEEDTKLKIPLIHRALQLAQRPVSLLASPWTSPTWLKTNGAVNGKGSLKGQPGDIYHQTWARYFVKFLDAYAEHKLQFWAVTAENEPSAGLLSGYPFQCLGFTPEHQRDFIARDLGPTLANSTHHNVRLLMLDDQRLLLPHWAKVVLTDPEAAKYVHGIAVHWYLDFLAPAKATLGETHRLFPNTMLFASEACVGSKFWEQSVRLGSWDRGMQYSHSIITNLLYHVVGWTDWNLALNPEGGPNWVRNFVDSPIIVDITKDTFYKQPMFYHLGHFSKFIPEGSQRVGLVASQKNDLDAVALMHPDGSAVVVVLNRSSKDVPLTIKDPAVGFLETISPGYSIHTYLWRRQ
Sequence of Alkaline phosphatase, placental type (P05187 whole entry): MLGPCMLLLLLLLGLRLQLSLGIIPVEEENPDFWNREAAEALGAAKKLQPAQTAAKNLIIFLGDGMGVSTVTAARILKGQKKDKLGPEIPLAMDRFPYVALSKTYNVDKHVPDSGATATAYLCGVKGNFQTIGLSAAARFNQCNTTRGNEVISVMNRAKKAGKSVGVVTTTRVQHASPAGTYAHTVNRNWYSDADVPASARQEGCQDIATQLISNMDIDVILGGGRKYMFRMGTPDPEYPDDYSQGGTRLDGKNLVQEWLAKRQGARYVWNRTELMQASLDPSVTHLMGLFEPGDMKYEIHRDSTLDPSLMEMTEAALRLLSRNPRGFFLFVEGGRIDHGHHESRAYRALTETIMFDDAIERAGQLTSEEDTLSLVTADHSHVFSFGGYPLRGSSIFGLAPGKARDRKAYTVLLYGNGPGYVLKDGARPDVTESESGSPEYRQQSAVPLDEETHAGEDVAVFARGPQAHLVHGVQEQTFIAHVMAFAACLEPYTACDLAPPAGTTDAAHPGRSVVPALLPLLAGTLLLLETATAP

SMILES: CC1Cc2ccccc2N1C(=O)COc1nc2ccccc2nc1N1CCOCC1 (centres undefined)
- EC50 [1]: > 100 µM (not active)

SMILES: O=c1cc(-c2ccccc2Cl)oc2c(NS(=O)(=O)c3cc(Cl)cc(Cl)c3O)ccc(O)c12
- EC50 [2]: > 300 µM (not active)
- IC50 (Aminopeptidase N): 51.6 µM (active)
- IC50 [3]: 4.77 µM (active)
- EC50 [4]: 4.54 µM (inconclusive)
- IC50 [5]: 3.4 µM (active)
- EC50 [6]: 1 µM (active)
- EC50 (Streptococcus): 2.26 µM (active)

SMILES: Cc1cccc(-n2c(CNC(=O)c3cccc([N+](=O)[O-])c3C)n[nH]c2=S)c1
- EC50 [1]: > 100 µM (not active)

SMILES: O=C(O)c1cc(-c2ccc(Cl)cc2Cl)[nH]n1
- IC50 [7]: > 100 µM (inactive)
- IC50 [8]: 0.392 µM (active)
- IC50 [9]: > 100 µM (not active)

SMILES: COC(=O)c1sc(N2C(=O)C(O)=C(C(=O)c3ccc(C)o3)C2c2cc(OC)ccc2OC)nc1C (centres undefined)
- IC50 (NS3): 5.66 µM (active)

SMILES: COc1ccc(/C=C\C(=O)c2c(O)ccc3c(C)cc(=O)oc23)cc1OC
- IC50 [10]: 8.91 µM (active)
- IC50 (Perilipin-1/ABHD5): 4.46 µM (active)

SMILES: O=C1c2ccc(Cl)cc2S(=O)(=O)c2cccc(C(=O)N3CCC(Cc4ccccc4)CC3)c21
- EC50 [11]: 16.6 µM (active)

SMILES: COC(=O)c1ccc2c(=O)n(CCCCCC(=O)N3CCN(c4ccccc4)CC3)c(=O)[nH]c2c1
- EC50 [11]: 17.6 µM (active)

SMILES: N#C/C(=C\c1ccc(OCc2ccc(C(=O)O)cc2)cc1)C(=O)NCc1ccccc1
- IC50 (NS3): 7.07 µM (active)
- IC50 [12]: 7.1 µM (active)

SMILES: CCN(CC)c1nc2cc(OC)ccc2cc1C#N
- EC50 [13]: > 10 µM (not active)

SMILES: Cc1ccccc1NC(=O)C1CCN(C(=O)c2cccs2)CC1
- IC50 [14]: > 100 µM (inactive)
- IC50 [15]: > 100 µM (inactive)

SMILES: O=C(CSc1ccc(-c2ccco2)nn1)NCCc1ccccc1
- IC50 [14]: 95.2 µM (active)
- IC50 [15]: > 100 µM (inactive)

SMILES: CCCCN(C)C(=O)CCCCn1c(=O)[nH]c2cc(OCC)c(OCC)cc2c1=O
- EC50 [13]: > 10 µM (not active)

SMILES: COc1ccc2c(c1)C=CC1(O2)N(CCO)c2ccccc2C1(C)C (centres undefined)
- IC50 [10]: 6.97 µM (active)
- IC50 (Perilipin-1/ABHD5): 7.1 µM (active)

SMILES: CC(=O)O[C@@]12CO[C@@H]1C[C@H](O)[C@@]1(C)C(=O)[C@H](O)C3=C(C)[C@@H](OC(=O)[C@H](O)[C@@H](NC(=O)c4ccccc4)c4ccccc4)C[C@@](O)([C@@H](OC(=O)c4ccccc4)C12)C3(C)C (some centres undefined)
- EC50 [16]: 6.71 µM (active)
- EC50 [17]: 9.95 µM (active)
- EC50 [18]: 0.132 µM (active)
- EC50 [19]: 1.21 µM (active)
- EC50 [20]: < 0.1 µM (active)
- EC50 (cells): 1.78 µM (active)
- EC50 [21]: 1.16 µM (active)
- IC50 [22]: > 80 µM (inactive)
- EC50 [23]: > 120 µM (not active)

SMILES: COc1ccccc1Cc1nc(N)nn1-c1ccccc1
- IC50 [7]: > 100 µM (inactive)
- IC50 [8]: > 100 µM (inactive)
- IC50 [9]: > 100 µM (not active)
